What is called IC50 is the concentration needed to halve the response being measured. Read a low IC50 as greater potency.

Assay type in all cases: cell-based, human
Test [1] relates to A549 cells. Put plainly: MTT cytotoxicity assay, A549 cells. As to conditions: 24 h. The text has this: (§1) MTT assay was utilized to evaluate the anticancer activity of Ir1-Ir6 toward A549 cells (human non-small cell lung cancer cells, one of the deadliest types of cancer in both developing and developed countries) along with cisplatin (metal anticancer drug widely used in clinic) as a control and compared with the cytotoxicity against noncancerous BEAS-2B cells (epithelial cells isolated from pathological sections of normal bronchial epithelium from non-cancerous individuals). […] Additionally, the substitution sites of coumarin (6- and 7-) have little effect on these complexes, however, the peripheral substituents show a significant effect on the structure−activity. […] In addition, the data is even better than the reported traditional cyclometallic Ir^III complexes (usually depicted as [(ppy)2Ir (L^L)], L^L = N^N, C^N, C^O, O^N, P^P, etc., Supplementary Table S3). […]
(§2) After plating 5000 cells per well in 96-well plates, the cells were preincubated in drug-free media at 310 K for 24 h before adding different concentrations of drugs to be tested. […] Afterwards, 100 μL of DMSO was transferred into each well to dissolve the purple formazan, and results were measured using a microplate reader (DNM-9606, Perlong Medical, Beijing, China) at an absorbance of 570 nm. […]

Test [2] relates to BEAS-2B cells. Put plainly: MTT cytotoxicity assay, BEAS-2B cells. The note with it: 24 h.
Source text: as §1, §2
(In general: Tetrazolium dyes change colour on reduction, which living cells bring about.)

Test [3] relates to BEAS-2B cells. The test can be described thus: Mitochondrial membrane potential (JC-1) flow cytometry, BEAS-2B cells. The note with it: positive control CCCP (5 μM), 20 min. From the text: (§3) Mitochondria, the main intracellular energy source, play an important role in the process of apoptosis. Disruption of mitochondrial membrane potential (MMP) is usually identified as the early signals of cell apoptotic. JC-1, a liphile cationic fluorescent dye, is generally used to detect the change of MMP, and it emits strong red fluorescence in the normal mitochondrial matrix and green fluorescence after depolarization activation in apoptotic cells ([Antonicka et al., 2017]). In this study, flow cytometry was utilized to analyze this change after the treatment of Ir2 at a gradient concentration. […] In addition, intracellular reactive oxygen species (ROS) is mainly produced and stored in mitochondria, and the accumulation of intracellular ROS can lead to apoptosis ([Romero-Canelón et al., 2015]). A549 and BEAS-2B cells were stained with DCFH-DA after incubated with Ir2 (1.0 × IC50 and 2.0 × IC50) for 24 h (Figure 8B). The intracellular ROS levels increased in a dose-dependent manner.
(§4) Analysis of the changes of mitochondrial potential in cells after exposure to Ir2 were carried out using the mitochondrial membrane potential assay kit with JC-1 (Beyotime Institute of Biotechnology, Shanghai, China) according to the manufacturer’s instructions. […] The samples were immediately analyzed by a flow cytometer (ACEA NovoCyte, Hangzhou, China). […]
In general terms: Flow cytometry measures light scatter and fluorescence of single cells or particles in a stream.

For test [4], the system named is A549 cells. Put plainly: Mitochondrial membrane potential (JC-1) flow cytometry, A549 cells. The note with it: A549, positive control CCCP (5 μM), 20 min.
Source text: as §3, with “manner. […]” for “manner.”
as §4

Turning to `N.N.[Cl][Pt][Cl]` [Cisplatin, reference compound], the IC50 is 21.3 ± 1.7 µM with A549 cells [1] and 38.4 ± 2.8 µM in the test with BEAS-2B cells [2].

For `N#CC(C#N)=NNc1cccc(Cl)c1` [Positive Control, carbonyl cyanide 3-chlorophenylhydrazone, reference compound], in the test on BEAS-2B cells [3], the “Percentage (%) JC-1 Aggregates” value was found to be 11.60±0.51% and the “Percentage (%) JC-1 Monomers” value is reported as 88.40±0.33%. Moreover, in the test with A549 cells [4], the “Percentage (%) JC-1 Aggregates” value turned out to be 22.63±0.55% and the “Percentage (%) JC-1 Monomers (depolarized cells)” value turned out to be 77.37±0.55%.

The values above are taken from publication PMC9127163, “Lysosomal Targeted Cyclometallic Iridium(Ⅲ) Salicylaldehyde-Coumarin Schiff Base Complexes and Anticancer Application” (Frontiers in Chemistry, 2022).
